# According to ChEMBL document CHEMBL5385846, “Discovery and development of palmatine analogues as anti-NASH agents by activating farnesoid X receptor (FXR)” (Eur J Med Chem, 2023):
# Activity calls are given as the source filed them. The rule behind the calls is not given here.
# Columns and labels:
# [1] = biological target: Collagen alpha-1(I) chain (Homo sapiens) (UniProt P02452); test: Inhibition of COL1A1 (unknown origin) expressed in human LX2 cells at 20 micromol/L incubated for 48 hrs by Bright-Glo luciferase assay relative to control; assay type: cell-based; conditions: dose 20.0 µmol/L
# [2] = test system: COL1A1; test: Selectivity index, ratio of CC50 for cytotoxicity against human LX2 cells to IC50 for inhibition of COL1A1 (unknown origin) expressed in human LX2 cells; assay type: toxicity, cell-based; conditions: read-out: Ratio CC50/IC50
# [3] = Cytotoxicity against human LX2 cells assessed as inhibition of cell growth; assay type: toxicity, cell-based, LX-2
# [4] = test system: Mus musculus; test: Hepatoprotective activity in CDAHFD induced C57BL/6N mouse liver injury model assessed as decrease in total cholesterol at 15 mg/kg,po qd administration for 4 weeks; assay type: functional, organism-based
# [5] = test system: Mus musculus; test: Hepatoprotective activity in CDAHFD induced C57BL/6N mouse liver injury model assessed as effect on HDL level at 15 mg/kg,po qd administration for 4 weeks; assay type: functional, organism-based
# [6] = test system: Mus musculus; test: Hepatoprotective activity in CDAHFD induced C57BL/6N mouse liver injury model assessed as effect on glucose level at 15 mg/kg,po qd administration for 4 weeks; assay type: functional, organism-based
# [7] = test system: Mus musculus; test: Hepatoprotective activity in CDAHFD induced C57BL/6N mouse liver injury model assessed as effect on LDL level at 15 mg/kg,po qd administration for 4 weeks; assay type: functional, organism-based
# [8] = test system: Mus musculus; test: Hepatoprotective activity in CDAHFD induced C57BL/6N mouse liver injury model assessed as effect on LDH level at 15 mg/kg,po qd administration for 4 weeks; assay type: functional, organism-based
# [9] = test system: Mus musculus; test: Hepatoprotective activity in CDAHFD induced C57BL/6N mouse liver injury model assessed as effect on ALP level at 15 mg/kg,po qd administration for 4 weeks; assay type: functional, organism-based
# [10] = test system: Mus musculus; test: Hepatoprotective activity in CDAHFD induced C57BL/6N mouse liver injury model assessed as effect on ALT level at 15 mg/kg,po qd administration for 4 weeks; assay type: functional, organism-based
# [11] = test system: Mus musculus; test: Hepatoprotective activity in CDAHFD induced C57BL/6N mouse liver injury model assessed as decrease in triglyceride level at 15 mg/kg,po qd administration for 4 weeks; assay type: functional, organism-based
# [12] = test system: Mus musculus; test: Hepatoprotective activity in CDAHFD induced C57BL/6N mouse liver injury model assessed as effect on total bilirubin level at 15 mg/kg,po qd administration for 4 weeks; assay type: functional, organism-based
# [13] = test system: Mus musculus; test: Hepatoprotective activity in CDAHFD induced C57BL/6N mouse liver injury model assessed as effect on AST level at 15 mg/kg,po qd administration for 4 weeks; assay type: functional, organism-based
# Chain of Collagen alpha-1(I) chain (Homo sapiens) (P02452 whole entry): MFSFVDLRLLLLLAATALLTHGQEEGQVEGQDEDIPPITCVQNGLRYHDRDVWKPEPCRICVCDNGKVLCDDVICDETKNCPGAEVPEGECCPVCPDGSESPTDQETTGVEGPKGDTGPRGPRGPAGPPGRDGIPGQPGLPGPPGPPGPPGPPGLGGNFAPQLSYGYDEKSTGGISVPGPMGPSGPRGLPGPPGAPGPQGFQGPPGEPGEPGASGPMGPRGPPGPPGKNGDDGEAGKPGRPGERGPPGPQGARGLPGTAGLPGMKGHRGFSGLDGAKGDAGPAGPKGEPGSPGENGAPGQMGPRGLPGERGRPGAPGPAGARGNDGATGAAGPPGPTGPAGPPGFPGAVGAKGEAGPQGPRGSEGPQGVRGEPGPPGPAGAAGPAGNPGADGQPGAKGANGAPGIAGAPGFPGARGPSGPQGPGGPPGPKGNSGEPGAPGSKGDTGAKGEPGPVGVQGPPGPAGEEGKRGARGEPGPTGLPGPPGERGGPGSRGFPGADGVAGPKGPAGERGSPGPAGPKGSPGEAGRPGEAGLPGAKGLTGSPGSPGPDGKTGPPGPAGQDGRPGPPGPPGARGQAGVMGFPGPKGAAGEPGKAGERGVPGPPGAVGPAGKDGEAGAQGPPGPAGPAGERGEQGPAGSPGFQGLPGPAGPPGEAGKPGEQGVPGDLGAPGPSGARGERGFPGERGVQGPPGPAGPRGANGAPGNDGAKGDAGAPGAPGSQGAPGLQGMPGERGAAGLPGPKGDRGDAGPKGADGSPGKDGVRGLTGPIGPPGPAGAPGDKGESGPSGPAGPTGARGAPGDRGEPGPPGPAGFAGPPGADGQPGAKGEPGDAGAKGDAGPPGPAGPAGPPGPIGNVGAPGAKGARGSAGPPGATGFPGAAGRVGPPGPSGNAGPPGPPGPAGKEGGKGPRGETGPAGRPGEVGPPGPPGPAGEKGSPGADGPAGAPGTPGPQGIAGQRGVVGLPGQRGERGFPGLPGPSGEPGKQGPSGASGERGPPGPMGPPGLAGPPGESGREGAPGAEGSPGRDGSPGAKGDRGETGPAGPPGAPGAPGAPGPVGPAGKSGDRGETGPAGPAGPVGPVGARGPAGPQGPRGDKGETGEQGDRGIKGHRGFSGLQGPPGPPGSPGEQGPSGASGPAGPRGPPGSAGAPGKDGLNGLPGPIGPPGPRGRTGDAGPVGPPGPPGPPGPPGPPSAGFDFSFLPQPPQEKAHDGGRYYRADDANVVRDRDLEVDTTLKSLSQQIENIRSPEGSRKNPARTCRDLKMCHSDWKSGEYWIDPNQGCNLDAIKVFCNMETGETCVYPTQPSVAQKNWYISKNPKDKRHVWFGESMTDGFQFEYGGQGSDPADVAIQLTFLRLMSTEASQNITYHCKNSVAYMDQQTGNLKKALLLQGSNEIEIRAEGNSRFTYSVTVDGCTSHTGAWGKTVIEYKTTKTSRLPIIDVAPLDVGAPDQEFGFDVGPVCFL
Structure (SMILES),inhibition [1] [%],other results
COc1cc2c(cc1OC)-c1cc3ccc(OC)c(NC(=O)C4CCC4)c3c[n+]1CC2,18.9,–
COc1cc2c(cc1OC)-c1cc3ccc(OC)c(OC(C)c4ccccc4)c3c[n+]1CC2 (stereo not given),22.1,–
COc1cc2c(cc1OC)-c1c(Cc3ccc(C(C)C)cc3)c3ccc(OC)c(OC)c3c[n+]1CC2,99.9,–
COc1cc2c(cc1OC)-c1cc3ccc(OC)c(OCCc4ccc(C(F)(F)F)cc4)c3c[n+]1CC2,56.3,selectivity ratio [2]: 6.05; CC50 [3]: 88.9 µM
COc1cccc(COc2c(OC)ccc3cc4[n+](cc23)CCc2cc(OC)c(OC)cc2-4)c1,21.4,–
COc1cc2c(cc1OC)-c1cc3ccc(OC)c(NCc4ccc(Cl)cc4)c3c[n+]1CC2,93.6,–
COc1cc2c(cc1OC)-c1cc3ccc(OC)c(NCc4ccc(F)cc4)c3c[n+]1CC2,23.7,–
CCOc1cc2c(cc1OC)-c1cc3ccc(OC)c(NCc4ccccc4)c3c[n+]1CC2,12.4,–
COc1cc2c(cc1OC)-c1cc3ccc(OC)c(OCC4CCC4)c3c[n+]1CC2,9.25,–
COc1cc2c(cc1OC)-c1c(Cc3cccc(C)c3)c3ccc(OC)c(OC)c3c[n+]1CC2,0,–
COc1cc(Cc2c3[n+](cc4c(OC)c(OC)ccc24)CCc2cc(OC)c(OC)cc2-3)cc(OC)c1,39,–
COc1cc2c(cc1OC)-c1cc3ccc(OC)c(OCc4ccccc4C#N)c3c[n+]1CC2,23,–
COc1ccc(C(=O)Nc2c(OC)ccc3cc4[n+](cc23)CCc2cc(OC)c(OC)cc2-4)cc1,2.39,–
COc1ccc(COc2c(OC)ccc3cc4[n+](cc23)CCc2cc(OC)c(OC)cc2-4)cc1OC,12.6,–
COc1cc2c(cc1OC)-c1cc3ccc(OC)c(NC(=O)C4CCCC4)c3c[n+]1CC2,10.8,–
CCOc1cc2c(cc1OC)-c1cc3ccc(OC)c(NCc4ccc(Br)cc4)c3c[n+]1CC2,8.92,–
CCCCCOc1c(OC)ccc2cc3[n+](cc12)CCc1cc(OC)c(OC)cc1-3,36.7,–
CCCCCCCCC(=O)Nc1c(OC)ccc2cc3[n+](cc12)CCc1cc(OC)c(OC)cc1-3,16.6,–
CCCNc1c(OC)ccc2cc3[n+](cc12)CCc1cc(OC)c(OC)cc1-3,22.6,–
COc1ccc(CNc2c(OC)ccc3cc4[n+](cc23)CCc2cc(OC)c(OC)cc2-4)c(OC)c1,36,–
COc1cc2c(cc1OC)-c1cc3ccc(OC)c(OCC4CC4)c3c[n+]1CC2,14,–
CCOc1cc2c(cc1OC)-c1cc3ccc(OC)c(NCc4ccc(F)cc4)c3c[n+]1CC2,24.8,–

Structure (SMILES),inhibition [1] [%],other results
COc1cc2c(cc1OC)-c1cc3ccc(OC)c(OCc4ccc(C(F)(F)F)cc4)c3c[n+]1CC2,38.7,–
COc1cc2c(cc1OC)-c1cc3ccc(OC)c(OCC4CCCC4)c3c[n+]1CC2,46,selectivity ratio [2]: 2.65; CC50 [3]: 64 µM
COC(=O)/C=C/c1ccc(Cc2c3[n+](cc4c(OC)c(OC)ccc24)CCc2cc(OC)c(OC)cc2-3)cc1,0,–
COc1cc2c(cc1OC)-c1cc3ccc(OC)c(NCc4ccc(Br)cc4)c3c[n+]1CC2,18.4,–
COc1cc2c(cc1OC)-c1cc3ccc(OC)c(OCc4ccc(Cl)cc4)c3c[n+]1CC2,28.9,–
COc1cc2c(cc1OC)-c1cc3ccc(OC)c(NCc4cccc(C#N)c4)c3c[n+]1CC2,10.5,–
COc1cc2c(cc1OC)-c1cc3ccc(OC)c(OCc4cccc(C#N)c4)c3c[n+]1CC2,24.1,–
COc1cc2c(cc1OC)-c1cc3ccc(OC)c(OC(=O)c4ccoc4C)c3c[n+]1CC2,9.91,–
O=C(O[C@@H]1Cc2c(O)cc(O)cc2O[C@@H]1c1cc(O)c(O)c(O)c1)c1cc(O)c(O)c(O)c1,27.6,–
COc1cc2c(cc1OC)-c1c(Cc3ccc(C#N)cc3)c3ccc(OC)c(OC)c3c[n+]1CC2,16.3,–
COc1cc2c(cc1OC)-c1cc3ccc(OC)c(OCc4cc(C)cc(C)c4)c3c[n+]1CC2,25,–
CCCCCCNc1c(OC)ccc2cc3[n+](cc12)CCc1cc(OC)c(OC)cc1-3,71.4,–
COc1cc2c(cc1OC)-c1c(Cc3ccccc3C#N)c3ccc(OC)c(OC)c3c[n+]1CC2,24.9,–
CCCCCCCOc1c(OC)ccc2cc3[n+](cc12)CCc1cc(OC)c(OC)cc1-3,94.4,–
COc1cc2c(cc1OC)-c1c(Cc3ccc(Br)cc3)c3ccc(OC)c(OC)c3c[n+]1CC2,85.7,–
COc1cc2c(cc1OC)-c1c(Cc3cccc(Br)c3)c3ccc(OC)c(OC)c3c[n+]1CC2,62.8,selectivity ratio [2]: 3.06; CC50 [3]: 45.5 µM
COc1cc2c(cc1OC)-c1c(Cc3ccccc3C)c3ccc(OC)c(OC)c3c[n+]1CC2,58.4,selectivity ratio [2]: 3.21; CC50 [3]: 45.6 µM
CC[C@H]1[C@@H](O)[C@@H]2[C@H](CC[C@]3(C)[C@@H]([C@H](C)CCC(=O)O)CC[C@@H]23)[C@@]2(C)CC[C@@H](O)C[C@@H]12,–,Activity [4]: Active; Activity [5]: inactive; Activity [6]: Active; Activity [7]: inactive; Activity [8]: inactive; Activity [9]: inactive; Activity [10]: inactive; Activity [11]: Active; Activity [12]: inactive; Activity [13]: inactive
COc1cc2c(cc1OC)-c1cc3ccc(OC)c(NC(=O)C4CCCCC4)c3c[n+]1CC2,3.33,–
CCCCC(=O)Nc1c(OC)ccc2cc3[n+](cc12)CCc1cc(OC)c(OC)cc1-3,0,–
CCOc1cc2c(cc1OC)-c1cc3ccc(OC)c(NCc4ccc(C)cc4)c3c[n+]1CC2,36,–
CCC(=O)Nc1c(OC)ccc2cc3[n+](cc12)CCc1cc(OC)c(OC)cc1-3,0,–

Structure (SMILES),inhibition [1] [%],other results
COc1cc2c(cc1OC)-c1cc3ccc(OC)c(NC(=O)c4cccc(F)c4)c3c[n+]1CC2,1.12,–
CCCCCCCCCOc1c(OC)ccc2cc3[n+](cc12)CCc1cc(OC)c(OC)cc1-3,99.9,–
COc1cc2c(cc1OC)-c1c(Cc3cccc([N+](=O)[O-])c3)c3ccc(OC)c(OC)c3c[n+]1CC2,13,–
COc1cc2c(cc1OC)-c1cc3ccc(OC)c(OCc4ccc(C)cc4)c3c[n+]1CC2,25.6,–
COc1cc2c(cc1OC)-c1c(Cc3cccc(F)c3)c3ccc(OC)c(OC)c3c[n+]1CC2,24.8,–
CCCC(=O)Nc1c(OC)ccc2cc3[n+](cc12)CCc1cc(OC)c(OC)cc1-3,5.11,–
COc1cc2c(cc1OC)-c1cc3ccc(OC)c(OCc4ccccn4)c3c[n+]1CC2,15.2,–
COc1cc2c(cc1OC)-c1cc3ccc(OC)c(NC(=O)c4cc(C)nn4C)c3c[n+]1CC2,0,–
COc1cc2c(cc1OC)-c1cc3ccc(OC)c(OCc4ccc(C(C)C)cc4)c3c[n+]1CC2,75,selectivity ratio [2]: 3.66; CC50 [3]: 28.7 µM
COc1cc2c(cc1OC)-c1cc3ccc(OC)c(OC(=O)c4ccco4)c3c[n+]1CC2,0,–
COC(=O)C(Oc1c(OC)ccc2cc3[n+](cc12)CCc1cc(OC)c(OC)cc1-3)c1ccccc1 (stereo not given),23.4,–
COc1cc2c(cc1OC)-c1c(Cc3ccc(F)cc3)c3ccc(OC)c(OC)c3c[n+]1CC2,22.6,–
COc1cc2c(cc1OC)-c1cc3ccc(OC)c(NC(=O)c4ccccc4)c3c[n+]1CC2,0,–
COc1cc2c(cc1OC)-c1c(Cc3cccc(C#N)c3)c3ccc(OC)c(OC)c3c[n+]1CC2,4.38,–
COc1cc2c(cc1OC)-c1cc3ccc(OC)c(NCc4ccccc4)c3c[n+]1CC2,25.4,–
COc1cc2c(cc1OC)-c1cc3ccc(OC)c(OCc4ccc(C#N)cc4)c3c[n+]1CC2,5.2,–
COc1cc2c(cc1OC)-c1cc3ccc(OC)c(OC(=O)Cc4ccc(C(F)(F)F)cc4)c3c[n+]1CC2,12.4,–
COc1cc2c(cc1OC)-c1cc3ccc(OC)c(OC(=O)C(=O)c4cccnc4)c3c[n+]1CC2,6.07,–
COc1cc2c(cc1OC)-c1cc3ccc(OC)c(OCc4ccc(F)cc4)c3c[n+]1CC2,10.9,–
COc1cc2c(cc1OC)-c1cc3ccc(OC)c(NCc4ccc(C)cc4)c3c[n+]1CC2,79.2,selectivity ratio [2]: 5.82; CC50 [3]: 65.5 µM
